Publication PMC11208559 (Scientific Reports, 2024)
In brackets after ≈: the same amount, converted by molar mass.

What was measured:
CD-1 mice [1] = assay: 52 °C tail-flick assay, morphine anti-nociception after Hsp90 inhibitor treatment; assay type: in vivo
Description: (§1) Pre-injection tail-flick baselines were determined in a 52 °C tail-flick assay with a 10-s cutoff time (method also reported in Ref.[13]). […] No animals were excluded from these studies.

CD-1 mice [2] = assay: Post-surgical paw incision, mechanical allodynia (von Frey), morphine anti-nociception; assay type: in vivo; conditions: 1 mg/kg inhibitor i.v., 24 h, then 1–3.2 mg/kg morphine s.c.; peak %MPE; 95% CI in parentheses
Description: Mechanical thresholds were determined prior to surgery using calibrated von Frey filaments (Ugo Basile, Varese, Italy) with the up-down method and four measurements after the first response per mouse as in Ref.[27] and our previously published work (e.g. Ref.[28]). The mice were housed in a homemade apparatus with Plexiglas walls and ceiling and a wire mesh floor (3-inch wide 4-inch long 3-inch high with 0.25-inch wire mesh). The surgery was then performed by anesthesia with ~ 2% isoflurane in standard air, preparation of the left plantar hind paw with iodine and 70% ethanol, and a 5-mm incision made through the skin and fascia with a no. 11 scalpel. The muscle was elevated with curved forceps leaving the origin and insertion intact, and the muscle was split lengthwise using the scalpel. The wound was then closed with 5–0 polyglycolic acid sutures. Mice were then injected with inhibitor or Vehicle control and left to recover for 24 h. Our intrathecal (i.t.) injection protocol is reported in Refs.[13],[29]; briefly, the injection was made in awake and restrained animals with a 10 μL Hamilton syringe and 30 g needle (5–7 μL volume) between the L5-L6 vertebrae at a 45° angle, with placement validated by tail twitch. Since the injection was made through skin with no incision or other surgical intervention, repeated injection protocols were performed the same way. The next day, the mechanical threshold was again determined as described above. […] . No animals were excluded from these studies.

CD-1 mice [3] = assay: Morphine anti-nociceptive tolerance and tolerance rescue (tail flick); assay type: in vivo; conditions: 3 days twice daily 10 mg/kg morphine s.c.; 1 mg/kg i.v. on day 3, 24 h; 10 mg/kg morphine s.c.; tail flick
Description: as §1

physchem [4] = assay type: physicochemical
Description: Distribution coefficient (LogD) was determined by the method of Wilson et al.[30]. Briefly, 5 µL volumes of test compounds diluted in DMSO were added to a mixture of equal volumes of 50 mM phosphate buffer and 1-octanol. The compounds were assayed using a 50 nM concentration in order to limit compound precipitation and to ensure that the assay values were maintained within the dynamic range of the LC–MS/MS instrumentation. Samples were vortex mixed at 800 rpm for 24 h. Subsequent to centrifugation at 14,000 rpm for 30 min, 1 µL of each layer was analyzed by LC–MS/MS. LogD was calculated using the peak areas obtained from each layer.
LC − MS/MS analysis was conducted using an Agilent (Santa Clara, CA) 6460 triple quadrupole mass spectrometer coupled with an Agilent liquid chromatography (LC) system. The LC system consists of a binary pump, degasser, column heater, and autosampler. Chromatographic separation was performed on a Waters Atlantis T3 3 µm 3.0 × 50 mm analytical column using a ballistic gradient of mobile phase consisting of 0.1% formic acid in water (A) and 0.1% formic acid in acetonitrile (B) at a flow rate of 0.75 mL/min. The mobile phase was heated to a temperature of 45 °C.

in vitro [5] = assay type: in vitro ADME, CD-1 mice; conditions: male, CD-1, mouse, microsomes
Description: (§2) Metabolic stability of lead compounds was assessed in vitro by the method of Di et al.[32]. Briefly, mouse liver microsomes (Corning Life Sciences, Woburn, MA) were isolated from CD-1 mice (male mice, 8 − 10 weeks of age). Assays were conducted using 0.123 mg/mL protein concentration (total protein concentration in the microsomal solution) and 1.0 μM drug concentration under incubation conditions of 37 °C. Metabolic stability was determined following 0, 5, 15, 30, and 60 min of incubation time. The samples were analyzed by reversed phase LC using a triple quadrupole mass spectrometer. Compound specific transitions of parent ion to product ion were monitored and percent remaining calculated based on peak area of 5 − 60 min time points (relative to time zero). Half-life calculations were determined using the formula t½ = − ln(2)/k, where k (min^−1) is the turnover rate constant (the slope) estimated from a log − linear regression of the percentage compound remaining versus time.
LC − MS/MS analysis was conducted using an Agilent (Santa Clara, CA) 6460 triple quadrupole mass spectrometer coupled with an Agilent liquid chromatography (LC) system. The LC system consists of a binary pump, degasser, column heater, and autosampler. […]

in vitro [6] = assay type: in vitro ADME; conditions: male, human, microsomes
Description: as §2
Metabolic stability of the compounds in human liver microsomes was determined by the method described above using pooled human liver microsome preparations from 20 male donors (Corning Life Sciences, Woburn, MA). Assays were conducted as described above and the in vitro half-life of the compounds was calculated. […]

human mu opioid receptor = target: T1, human mu opioid receptor (Homo sapiens, UniProt P35372); assay type: binding; conditions: up to a 10 μM concentration
T1 construct: membrane protein

[7] = target: T2, human delta opioid receptor (Homo sapiens, UniProt P41143); assay: Competition radioligand binding vs 3H-diprenorphine, delta opioid receptor; conditions: up to a 10 μM concentration
T2 construct: membrane protein

[8] = target: T3, human kappa opioid receptor (Homo sapiens, UniProt P41145); assay: Competition radioligand binding vs 3H-diprenorphine, kappa opioid receptor; conditions: up to a 10 μM concentration
T3 construct: membrane protein

CD-1 mice [9] = conditions: mouse, in vivo
[10] = 1 and 10 mg/kg i.v.
in vivo = conditions: CD-1, mouse, iv
physchem [11] = conditions: pH 6.8, aqueous buffer, thermodynamic from solid
[12] = cited from earlier work

SMILES: COC(=O)c1c(O)cc(O)c(Cl)c1CCc1ccccc1Cc1ccc(F)cc1 [KUNG65]
- naloxone reversibility of inhibitor-enhanced morphine pain relief (CD-1 mice [1]; 1 mg/kg i.v., 24 h, 2 mg/kg naloxone i.p. 10 min, 3.2 mg/kg morphine s.c., tail flick): fully naloxone-reversible
- effect on morphine tail flick anti-nociception 48 h after treatment (CD-1 mice [1]; 1 mg/kg i.v., 48 h, then 3.2 mg/kg morphine s.c.): no effect
- A50 (morphine anti-nociceptive potency), tail flick, systemic inhibitor (CD-1 mice [1]; 1 mg/kg inhibitor i.v., 24 h, then 1–5.6 mg/kg morphine s.c., peak %MPE, 95% CI in parentheses): 1.9 (1.4–2.3) mg/kg
- effect of higher 10 mg/kg dose on morphine pain relief (tail flick) (CD-1 mice [1]; 10 mg/kg i.v. vs 1 mg/kg i.v., 24 h, then 3.2 mg/kg morphine s.c.): elevated morphine pain relief, it did so less than a 1 mg/kg dose
- effect of spinal cord Grp94 CRISPR knockdown on benefit of systemic inhibitor (CD-1 mice [1]; Grp94 CRISPR i.t., 1 mg/kg i.v. on day 9, 24 h, 3.2 mg/kg morphine s.c., tail flick): abolished the benefit
- A50 (morphine anti-nociceptive potency), paw incision, systemic inhibitor (CD-1 mice [2]): 0.9 (0.5–1.2) mg/kg
- rescue of established morphine tolerance, systemic inhibitor (CD-1 mice [3]): rescued established tolerance
- logD at 24 h (physchem [4]): 3.3
- half-life at 1 µM (in vitro [5]): 32 min
- half-life at 1 µM (in vitro [6]): 144 min
- binding to mu opioid receptor (competition vs 3H-diprenorphine) (human mu opioid receptor): no binding
- binding to delta opioid receptor (competition vs 3H-diprenorphine) [7]: no binding
- binding to kappa opioid receptor (competition vs 3H-diprenorphine) [8]: no binding
- effect on respiratory activity before and after morphine (CD-1 mice [9]): no effect on respiration before or after morphine injection
- exposure in the spinal cord [10]: very low exposure
- AUC(0-inf) (in vivo; 1 mg/kg): 0.245 µM·h
- Cmax (in vivo; 1 mg/kg): 418 nM
- Tmax (in vivo; 1 mg/kg): 4.98 min
- half-life (in vivo; 1 mg/kg): 36 min
- AUC(0-inf) (in vivo; 10 mg/kg): 0.46 µM·h
- Cmax (in vivo; 10 mg/kg): 1070 nM
- Tmax (in vivo; 10 mg/kg): 4.98 min
- half-life (in vivo; 10 mg/kg): 38.4 min
- solubility at 24 h (physchem [11]): 0.074 µM (≈ 0.0307 µg/mL)

SMILES: C=CCNC1=C2C[C@@H](C)C[C@H](OC)[C@H](O)[C@@H](C)/C=C(\C)[C@H](OC(N)=O)[C@@H](OC)/C=C\C=C(/C)C(=O)NC(=CC1=O)C2=O [17-AAG]
- tolerability in clinical trials [12]: liver toxicity
